What all share (experiment): DSF 100 kinase selectivity screen;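 note: compound tested at 20 µM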
What all share (assay type): binding

Test [1] concerns the target T1, ~100 representative kinases (Homo sapiens, UniProt P11362).
T1 construct: Recombinant protein kinase domains with a concentration of 2 μM
The conditions noted are these: protein FGFR1; average of three replicates. Put shortly:
(§1)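 Each kinase domain, at 2 μM, is mixed with 20 μM test compound and SYPRO Orange in Hepes (20 mM, pH 7.5) with 500 mM NaCl. Temperature is then raised at 3°C/min and fluorescence-monitored unfolding yields the melting temperature change, ΔTm in degrees Celsius.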

The target in test [2] is T2, ~100 representative kinases (Homo sapiens, UniProt Q9Y6E0).
T2 construct: Recombinant protein kinase domains with a concentration of 2 μM
As to conditions: protein MST3; average of three replicates. The essentials: as §1

Test [3] deals with T3, ~100 representative kinases (Homo sapiens, UniProt P19784).
T3 construct: Recombinant protein kinase domains with a concentration of 2 μM
As to conditions: Protein CK2A2; average of three replicates. Put shortly: as §1

For test [4], the target named is T4, ~100 representative kinases (Homo sapiens, UniProt Q13043).
T4 construct: Recombinant protein kinase domains with a concentration of 2 μM
T4 sequence (Q13043 1-487): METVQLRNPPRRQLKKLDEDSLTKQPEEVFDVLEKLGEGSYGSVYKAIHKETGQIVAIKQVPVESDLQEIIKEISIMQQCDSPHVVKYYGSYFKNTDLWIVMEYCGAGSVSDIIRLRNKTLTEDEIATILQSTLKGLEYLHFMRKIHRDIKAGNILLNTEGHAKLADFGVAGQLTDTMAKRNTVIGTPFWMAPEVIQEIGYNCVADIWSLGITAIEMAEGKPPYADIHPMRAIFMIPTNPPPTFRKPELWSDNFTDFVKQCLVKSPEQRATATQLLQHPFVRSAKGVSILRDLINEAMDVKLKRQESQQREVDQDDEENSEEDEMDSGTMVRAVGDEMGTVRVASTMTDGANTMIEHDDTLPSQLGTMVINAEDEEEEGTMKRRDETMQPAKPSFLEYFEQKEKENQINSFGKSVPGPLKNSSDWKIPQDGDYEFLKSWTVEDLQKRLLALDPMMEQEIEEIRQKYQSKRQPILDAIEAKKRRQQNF
The conditions noted are these: Protein STK4; DSF; average of three replicates. Put shortly:
as §1

In test [5] the target is T5, ~100 representative kinases (Homo sapiens, UniProt P54753).
T5 construct: Recombinant protein kinase domains with a concentration of 2 μM
T5 sequence (P54753 34-998): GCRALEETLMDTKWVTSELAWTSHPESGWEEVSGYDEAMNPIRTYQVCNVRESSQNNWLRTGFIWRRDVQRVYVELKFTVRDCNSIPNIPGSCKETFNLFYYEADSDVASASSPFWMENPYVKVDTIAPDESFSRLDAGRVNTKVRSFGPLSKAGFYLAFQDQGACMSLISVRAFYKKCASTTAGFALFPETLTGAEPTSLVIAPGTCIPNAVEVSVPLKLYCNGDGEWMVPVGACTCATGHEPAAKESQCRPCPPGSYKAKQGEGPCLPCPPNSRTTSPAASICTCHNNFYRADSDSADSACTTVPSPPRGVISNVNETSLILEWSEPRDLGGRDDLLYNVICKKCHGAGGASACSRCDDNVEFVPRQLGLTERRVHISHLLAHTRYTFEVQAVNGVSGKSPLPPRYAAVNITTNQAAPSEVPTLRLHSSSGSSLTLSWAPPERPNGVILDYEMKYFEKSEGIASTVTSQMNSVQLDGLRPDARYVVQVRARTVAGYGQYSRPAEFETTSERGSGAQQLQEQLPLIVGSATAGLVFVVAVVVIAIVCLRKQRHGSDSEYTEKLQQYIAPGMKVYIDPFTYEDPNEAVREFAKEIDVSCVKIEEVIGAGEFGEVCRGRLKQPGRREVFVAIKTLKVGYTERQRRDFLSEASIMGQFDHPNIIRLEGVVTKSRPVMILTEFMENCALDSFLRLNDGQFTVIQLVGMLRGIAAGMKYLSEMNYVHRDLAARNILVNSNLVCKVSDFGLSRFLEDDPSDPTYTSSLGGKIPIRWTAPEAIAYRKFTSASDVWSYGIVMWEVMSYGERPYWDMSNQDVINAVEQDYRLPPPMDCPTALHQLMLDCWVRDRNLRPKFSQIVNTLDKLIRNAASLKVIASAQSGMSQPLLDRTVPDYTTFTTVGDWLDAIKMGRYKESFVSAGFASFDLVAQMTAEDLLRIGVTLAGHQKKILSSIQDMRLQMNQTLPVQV
As to conditions: Protein EPHB3A; average of three replicates. Put shortly:
as §1

The target in test [6] is T6, ~100 representative kinases (Homo sapiens, UniProt O15075).
T6 construct: Recombinant protein kinase domains with a concentration of 2 μM
As to conditions: Protein DCAMKL1; average of three replicates. Put shortly:
as §1

Test [7] addresses T7, ~100 representative kinases (Homo sapiens, UniProt Q16539).
T7 construct: Recombinant protein kinase domains with a concentration of 2 μM
As to conditions: protein MAPK14; average of three replicates. The essentials: as §1

T7 sequence (Q16539 whole entry, the tested form may be a part): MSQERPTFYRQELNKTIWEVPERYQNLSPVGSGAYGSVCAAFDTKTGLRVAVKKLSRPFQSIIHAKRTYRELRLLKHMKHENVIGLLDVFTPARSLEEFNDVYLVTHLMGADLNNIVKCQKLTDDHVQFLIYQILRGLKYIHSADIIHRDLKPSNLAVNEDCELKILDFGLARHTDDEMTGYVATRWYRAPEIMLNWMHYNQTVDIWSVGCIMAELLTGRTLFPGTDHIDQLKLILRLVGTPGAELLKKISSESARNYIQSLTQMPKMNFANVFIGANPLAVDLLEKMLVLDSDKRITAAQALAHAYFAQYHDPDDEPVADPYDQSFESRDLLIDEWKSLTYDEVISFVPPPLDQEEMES
T2 sequence (Q9Y6E0 whole entry, the tested form may be a part): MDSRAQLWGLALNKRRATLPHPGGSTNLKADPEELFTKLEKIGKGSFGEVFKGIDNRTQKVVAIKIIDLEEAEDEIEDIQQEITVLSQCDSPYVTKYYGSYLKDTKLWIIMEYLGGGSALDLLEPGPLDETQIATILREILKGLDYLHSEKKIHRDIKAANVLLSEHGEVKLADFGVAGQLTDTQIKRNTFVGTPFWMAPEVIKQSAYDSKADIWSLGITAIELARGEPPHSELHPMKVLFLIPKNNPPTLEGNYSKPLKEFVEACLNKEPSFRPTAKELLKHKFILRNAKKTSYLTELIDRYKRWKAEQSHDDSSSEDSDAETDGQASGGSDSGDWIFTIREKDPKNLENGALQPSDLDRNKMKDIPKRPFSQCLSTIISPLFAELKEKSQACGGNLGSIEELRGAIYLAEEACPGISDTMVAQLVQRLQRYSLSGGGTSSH
T3 sequence (P19784 whole entry, the tested form may be a part): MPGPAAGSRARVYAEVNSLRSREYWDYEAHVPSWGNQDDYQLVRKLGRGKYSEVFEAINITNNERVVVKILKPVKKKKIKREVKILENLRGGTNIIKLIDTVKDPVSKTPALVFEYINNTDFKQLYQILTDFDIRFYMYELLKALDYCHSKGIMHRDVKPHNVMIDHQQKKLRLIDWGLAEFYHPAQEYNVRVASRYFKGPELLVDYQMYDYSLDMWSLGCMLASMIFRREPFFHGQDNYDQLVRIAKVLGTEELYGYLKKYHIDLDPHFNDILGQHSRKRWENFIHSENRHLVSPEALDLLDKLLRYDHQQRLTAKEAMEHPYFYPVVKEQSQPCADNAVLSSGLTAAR
T1 sequence (P11362 22-822): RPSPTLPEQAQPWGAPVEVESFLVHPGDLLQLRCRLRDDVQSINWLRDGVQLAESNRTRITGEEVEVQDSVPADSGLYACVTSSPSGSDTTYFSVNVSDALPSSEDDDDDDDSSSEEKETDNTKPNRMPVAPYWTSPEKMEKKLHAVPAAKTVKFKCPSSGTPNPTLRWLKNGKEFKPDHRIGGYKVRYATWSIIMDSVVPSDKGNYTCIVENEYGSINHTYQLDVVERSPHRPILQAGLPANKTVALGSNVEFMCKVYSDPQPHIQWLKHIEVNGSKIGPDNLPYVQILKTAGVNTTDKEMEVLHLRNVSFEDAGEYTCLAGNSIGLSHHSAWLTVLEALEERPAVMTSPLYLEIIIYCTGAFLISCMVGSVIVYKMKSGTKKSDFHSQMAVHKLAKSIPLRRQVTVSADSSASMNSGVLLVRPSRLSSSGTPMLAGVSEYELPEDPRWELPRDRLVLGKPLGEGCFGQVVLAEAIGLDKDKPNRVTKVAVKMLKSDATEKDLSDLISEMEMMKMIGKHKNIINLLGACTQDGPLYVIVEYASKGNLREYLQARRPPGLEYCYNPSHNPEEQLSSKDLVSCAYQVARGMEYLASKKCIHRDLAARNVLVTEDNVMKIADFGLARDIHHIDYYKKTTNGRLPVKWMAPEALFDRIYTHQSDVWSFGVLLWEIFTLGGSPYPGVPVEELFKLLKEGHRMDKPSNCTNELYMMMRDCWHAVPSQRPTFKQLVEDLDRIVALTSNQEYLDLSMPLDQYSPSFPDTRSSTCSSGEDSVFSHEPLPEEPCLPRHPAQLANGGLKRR
T6 sequence (O15075 whole entry, the tested form may be a part): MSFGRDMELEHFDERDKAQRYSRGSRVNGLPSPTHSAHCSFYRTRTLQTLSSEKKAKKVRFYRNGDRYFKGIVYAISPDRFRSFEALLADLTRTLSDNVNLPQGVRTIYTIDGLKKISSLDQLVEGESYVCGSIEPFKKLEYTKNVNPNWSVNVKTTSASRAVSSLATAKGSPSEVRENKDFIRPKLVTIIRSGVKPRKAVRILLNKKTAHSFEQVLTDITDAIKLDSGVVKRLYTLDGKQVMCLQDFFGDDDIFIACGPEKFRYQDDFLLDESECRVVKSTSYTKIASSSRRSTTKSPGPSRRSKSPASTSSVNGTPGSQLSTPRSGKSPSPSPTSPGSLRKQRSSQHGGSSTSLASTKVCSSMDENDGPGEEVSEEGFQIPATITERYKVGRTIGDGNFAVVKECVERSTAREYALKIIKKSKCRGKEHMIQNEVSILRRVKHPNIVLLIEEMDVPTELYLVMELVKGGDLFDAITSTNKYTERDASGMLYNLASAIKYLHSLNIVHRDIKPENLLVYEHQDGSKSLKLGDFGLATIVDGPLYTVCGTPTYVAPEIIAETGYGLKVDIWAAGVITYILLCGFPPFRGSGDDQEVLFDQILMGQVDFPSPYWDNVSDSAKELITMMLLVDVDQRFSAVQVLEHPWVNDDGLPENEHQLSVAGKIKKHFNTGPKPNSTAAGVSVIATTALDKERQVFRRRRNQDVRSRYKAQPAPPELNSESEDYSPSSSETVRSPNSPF

For `O=C(Nc1cccc(-c2c[nH]c3ncnc(N4CCOCC4)c23)c1)C1(C(=O)Nc2ccc(F)cc2F)CC1` [Compound 23], the dTm in test [1] was 1.14 K; in test [2] it was 5.25 K; in test [3], 1.02 K; in test [4] it was 4.75 K; in test [5] it was 1.84 K; in test [6] it was -0.73 K. In addition, the dTm in test [7] is given as -0.38 K.

Consider `Cc1ccc(-n2nc(C(C)(C)C)cc2NC(=O)Nc2cccc(-c3c[nH]c4ncnc(N5CCOCC5)c34)c2)cc1` [Compound 29], for which the dTm is given as 5.95 K in test [1]; 6.78 K in test [2]; -2.10 K in test [3]; 8.44 K in test [4]; -2.20 K in test [5]; 2.98 K in test [6]. In test [7], this compound had a dTm of 5.90 K.

On to `Cc1ccc(NC(=O)C2(C(=O)Nc3cccc(-c4c[nH]c5ncnc(N6CCOCC6)c45)c3)CC2)cc1` [Compound 14], for which the dTm is reported as 0.77 K in test [1]; 4.56 K in test [2]; 5.87 K in test [3]; 4.82 K in test [4]; 3.71 K in test [5]; -0.07 K in test [6]. The dTm in test [7] is listed as 0.29 K.

The values are drawn from PMC12136037, “Type II kinase inhibitors that target Parkinson’s disease–associated LRRK2” (Science Advances, 2025).
